According to patent publication US5168102A, “Endocrine manipulation to improve body composition of poultry” (priority 1990, dated 1992):
No end group written: not given here.

What was measured:
[1] = i.v., 21 days, cited from earlier work; for growth rate and feed efficiency: TRH 1 or 10 μg/kg/day, GRF 10 μg/kg/day, alone or in combination
[2] = injected; commercial preparations from cattle and swine pancreases; cited from earlier work
[3] = at the doses tested
Source text: Referring now to broiler chickens as a benchmark for the beneficial effects of this invention, it must be noted that these chickens grow from a weight of 30 to 50 grams at hatching to about 1.5-3 or even as much as 5 kilograms of body weight at market age. Of this market weight, 15-20 wt.-% is protein, 2-3 wt.-% is inorganic (showing up as ash in proximate analysis of body composition), and more than 10 wt.-% (e.g. 10-20 wt.-%) is fat, which means that the protein:fat ratio (by weight) is likely to be at or below 1.5:1 and certainly well below 2:1.

[4] = Example 1: body composition (proximate analysis of carcass); type: in vivo, broiler cockerels (Ross X Arbor Acre strain); conditions: for Body composition: Ash / Body composition: Fat / Body composition: Protein / Body composition: Water: N = 8
Source text: (§1) The purpose of this study was to determine the effect manipulating blood levels of thyroid hormones and/or growth hormone on growth performance and body composition of broiler chickens. […] Purified natural chicken growth hormone (ncGH) was obtained from the Research and Education Center, Harbor-UCLA Medical Center, Torrance, Calif. […] The premix (200 g) was then used to prepare 50 kg batches of each experimental diet according to the formula for broiler-finisher ration described in Table 1. The diet containing 0.5% PTU was prepared by mixing 250 g of PTU into 49.75 kg of the basal ration (Table 1).
(§2) Broiler cockerels (Ross X Arbor Acre strain) were raised to 3 weeks-of-age in a battery-brooder and then transferred to wire grow-out cages (4 birds/pen) held in two controlled-environment rooms (10 pens/room). Beginning at 3 weeks of age, eight birds (2 pens of 4 birds) were randomly assigned to each of 10 treatments. The chickens were provided the experimental diets and water ad libitum. […] For injection, the ncGH was reconstituted in sterile 0.025M sodium bicarbonate buffer (pH 9.8). The 10 treatments were administered for 21 days (i.e., from 3 to 6 weeks of age).
(§3) Measurement of body weight and feed consumption at weekly intervals allowed calculation of the average daily gain (ADG, g/bird/day), average daily feed consumption (ADFC, g/bird/day) and the feed-to-gain ratio (FIG, kg feed/kg gain) over the 21 day experimental period. Blood samples were taken each week (4, 5, and 6 weeks) just before (pre-injection) and 4 hours post-injection of ncGH. […] At the conclusion of the study, birds were killed and the carcasses frozen for proximate analysis. The frozen carcasses were ground in a meat grinder and aliquots of each ground carcass taken for determination of moisture, protein, fat and ash by established analytical procedures (Official Method of Analysis, Edition 13, W. Horwitz ed., Association of Official Analytical Chemist, Washington, D.C., 1980). Body composition data are presented as a percent of live weight at 6 weeks-of-age. Least squares regression analysis was used to test for significant differences (P<0.05) due treatment.

[5] = Example 1: plasma hormone concentrations (radioimmunoassays); conditions: for average plasma T3 level: Group 1; for I/G Molar Ratio / plasma Glucagon (G) / plasma Insulin (I): N = 24
Source text: as §1, §2, §3

[6] = hypothyroid state; cited from earlier work
[7] = Example 1: growth and feed efficiency of broiler cockerels fed thyroid-active substances with or without daily ncGH injection; type: in vivo, broiler cockerels (Ross X Arbor Acre strain); conditions: for BW (body weight): mean ±SEM; for ADFC (average daily feed consumption) / ADG (average daily weight gain) / FTG (feed-to-gain ratio): 21 days
Source text: as §1, §2, §3

receptor = conditions: cited from earlier work
[8] = supplemented diets; cited from earlier work
[9] = injection, finishing pigs; cited from earlier work
[10] = Example 2: final body weight, liver, abdominal fat and body composition; type: in vivo, broiler cockerels (Ross X Arbor Acre)
Description: (§4) Forty-eight 3-week-old broiler cockerels (Ross X Arbor Acre) were randomly divided into four treatment groups that contained three pens of four birds. The birds were housed in a controlled-environment room under a 20 hour light/4 hour dark cycle with feed and water provided ad libitum.
(§5) The preparation of ncGH used in this study was from the same lot used in Example 1.
(§6) Body weights and feed consumption was determined at weekly intervals although the ADG, ADFC and FTG ratio was determined over the 21 day period. […] At the conclusion of the study (6 weeks-of-age), birds were killed and the abdominal fat removed and weighed. The liver and abdominal fat were returned to the carcass which was frozen for proximate analysis as described in […]

[11] = Example 2: growth and feed efficiency, dietary T3 and ncGH injection; type: in vivo, broiler cockerels (Ross X Arbor Acre)
Description: as §4, §5, §6

[12] = Example 2: plasma hormone concentrations; type: in vivo, broiler cockerels (Ross X Arbor Acre); conditions: 4 hours post-injection of 100 μg ncGH/kg BW at 4, 5 and 6 weeks
Description: as §4, §5, §6

[13] = Group 1, dietary, 6 weeks-of-age
[14] = 1 ppm T3, 1 ppm T4, 5 ppm TRH or 0.5% PTU in feed, 3 to 6 weeks of age, Group 1
[15] = 1 ppm T3 and/or ncGH 100 μg/kg/day, 21 days
[16] = Group 2, with daily ncGH injection

GRF: GH-releasing factor; human GRF is a 44 amino acid polypeptide hormone (YADAIFTNSYRKVLGQLSARKLLQDIMSRQQGESNQERGARARL-NH2; ends and bridges not checked; UniProt P01286 32-75, looked up)
plasma GH levels [1]: elevated plasma GH levels | growth rate and feed efficiency [1]: failed to stimulate growth rate or improve feed efficiency

glucagon
biological and metabolic activity in chickens [2]: the same biological and metabolic activity as endogenous glucagon

CCCc1cc(=O)[nH]c(=S)[nH]1 [PTU, 6-N-propyl-2-thiouracil]
effect on protein:fat ratio [3]: seemed to decrease the protein:fat ratio | Body composition: Ash [4, 13]: 2.17 ± .06 % BW | Body composition: Fat [4, 13]: 18.2 ± .80 % BW | Body composition: Protein [4, 13]: 17.2 ± .20 % BW | Body composition: Water [4, 13]: 61.9 ± .73 % BW | body fat content, increase ([4]; vs CF group): 50% | effect on body protein, water and ash ([4]; vs CF group): at the expense of body ash, protein and water | average plasma T3 level [5]: 1.5 ng/mL | I/G Molar Ratio ([5]; Group 1, dietary): 6.35 | plasma Glucagon (G) ([5]; Group 1, dietary): 225 pg/mL | plasma Insulin (I) ([5]; Group 1, dietary): 2349 pg/mL | average plasma T3 level, reduction ([5]; vs CF birds (P<0.05)): 53% | plasma I/G molar ratio, fold greater ([5]; vs CF group (P<0.05)): 2.9 times | plasma GH level, fold higher ([5]; vs CF treatment): 1.9 times | plasma T4 level, reduction ([5]; vs average of CF and TRH treatments (P<0.05)): 76% | body fat [6]: increased accumulation of body fat | plasma insulin levels [6]: elevated plasma insulin levels | BW (body weight) [7, 14]: 1.42 ± .05 kg | effect on growth rate and feed efficiency ([7]; Group 1, dietary): depressed growth rate and reduced feed conversion | ADFC (average daily feed consumption) ([7]; Group 1, dietary): 92.3 ± 7.9 g/bird/day | ADG (average daily weight gain) ([7]; Group 1, dietary): 39.2 ± 4.0 g/bird/day | FTG (feed-to-gain ratio) ([7]; Group 1, dietary): 2.36 ± .04 kg feed/kg gain | final body weight, reduction ([7]; vs birds fed CF or thyroid hormones (P<0.05)): 18%

N[C@@H](Cc1cc(I)c(Oc2cc(I)c(O)c(I)c2)c(I)c1)C(=O)O [T4, 3-[4-(4-hydroxy-3,5-diiodophenoxy)-3,5-diiodophenyl]-L-alanine]
metabolic activity of thyroid hormones (receptor): without significant metabolic activity | Body composition: Ash [4, 13]: 2.35 ± .03 % BW | Body composition: Fat [4, 13]: 12.9 ± .41 % BW | Body composition: Protein [4, 13]: 18.2 ± .31 % BW | Body composition: Water [4, 13]: 65.8 ± .29 % BW | average plasma T3 level [5]: 3 ng/mL | plasma Glucagon (G) ([5]; Group 1, dietary): 318 pg/mL | plasma Insulin (I) ([5]; Group 1, dietary): 776 pg/mL | depressed growth rate in dwarf strains [8]: restored to normal | BW (body weight) [7, 14]: 1.76 ± .04 kg | ADFC (average daily feed consumption) ([7]; Group 1, dietary): 108.4 ± 3.6 g/bird/day | ADG (average daily weight gain) ([7]; Group 1, dietary): 51.9 ± 3.3 g/bird/day

O=C(O)Cc1cc(I)c(Oc2ccc(O)c(I)c2)c(I)c1 [Triac]
metabolic activity of thyroid hormones (receptor): most active compounds of formula I

O=C(O)Cc1cc(I)c(Oc2cc(I)c(O)c(I)c2)c(I)c1 [Tetrac]
metabolic activity of thyroid hormones (receptor): most active compounds of formula I

NC(=O)[C@@H]1CCCN1C(=O)[C@H](Cc1c[nH]cn1)NC(=O)[C@@H]1CCC(=O)N1 [TRH, L-pyroglutamyl-L-histidyl-L-prolinamide]
effect on protein:fat ratio [3]: seemed to decrease the protein:fat ratio | Body composition: Ash [4, 13]: 2.34 ± .06 % BW | Body composition: Fat [4, 13]: 13.6 ± .88 % BW | Body composition: Protein [4, 13]: 18.1 ± .21 % BW | Body composition: Water [4, 13]: 65.5 ± .73 % BW | body fat content, increase ([4]; vs CF group): 12% | average plasma T3 level [5]: 3 ng/mL | I/G Molar Ratio ([5]; Group 1, dietary): 1.68 | plasma Glucagon (G) ([5]; Group 1, dietary): 295 pg/mL | plasma Insulin (I) ([5]; Group 1, dietary): 814 pg/mL | plasma GH levels [1]: elevated plasma GH levels | growth rate and feed efficiency [1]: failed to stimulate growth rate or improve feed efficiency | BW (body weight) [7, 14]: 1.85 ± .08 kg | ADFC (average daily feed consumption) ([7]; Group 1, dietary): 125.2 ± 5.5 g/bird/day | ADG (average daily weight gain) ([7]; Group 1, dietary): 56.5 ± 0.2 g/bird/day | FTG (feed-to-gain ratio) ([7]; Group 1, dietary): 2.21 ± 0.1 kg feed/kg gain | ADFC rate, increase ([7]; vs CF group, not significant): 11% | ADG, increase ([7]; vs CF group, not significant): 9% | body weight (BW), increase ([7]; vs CF group, not significant): 6%

B1: pGH: purified porcine growth hormone (pGH) (protein, UniProt P01248 27-216, looked up)
Somatotropin: FPAMPLSSLFANAVLRAQHLHQLAADTYKEFERAYIPEGQRYSIQNAQAAFCFSETIPAPTGKDEAQQRSDVELLRFSLLLIQSWLGPVQFLSRVFTNSLVFGTSDRVYEKLKDLEEGIQALMRELEDGSPRAGQILKQTYDKFDTNLRSDDALLKNYGLLSCFKKDLHKAETYLRVMKCRRFVESSCAF
carcass fat content, reduction [9]: 18-25% | feed conversion, improvement [9]: 7-19% | growth rate, increase [9]: 10-14% | muscle mass, increase [9]: 24-36%

B2: GH: Purified natural chicken growth hormone (ncGH) (protein, UniProt P08998 26-216, looked up)
Somatotropin: TFPAMPLSNLFANAVLRAQHLHLLAAETYKEFERTYIPEDQRYTNKNSQAAFCYSETIPAPTGKDDAQQKSDMELLRFSLVLIQSWLTPVQYLSKVFTNNLVFGTSDRVFEKLKDLEEGIQALMRELEDRSPRGPQLLRPTYDKFDIHLRNEDALLKNYGLLSCFKKDLHKVETYLKVMKCRRFGESNCTI
effect on protein:fat ratio [3]: seemed to decrease the protein:fat ratio | Body Weight (BW), final ([10]; 1 ppm T3 and/or ncGH 100 μg/kg/day, 6 weeks-of-age, N = 12): 1.88 ± .051 kg | effect on final body weight, relative liver weight, abdominal fat ([10]; 6 weeks-of-age): did not affect growth performance, final body weight, relative liver weight or abdominal fat content | Abdominal Fat, relative weight ([10]; N = 12): 2.56 ± .178 % BW | Body composition: Ash ([10]; N = 12): 2.23 ± .058 % BW | Body composition: Fat ([10]; N = 12): 15.9 ± .32 % BW | Body composition: Protein ([10]; N = 12): 17.0 ± .17 % BW | Body composition: Water ([10]; N = 12): 63.7 ± .33 % BW | Liver, relative weight ([10]; N = 12): 2.74 ± .102 % BW | ADFC [11, 15]: 115.4 ± 3.5 g/bird/day | FTG [11, 15]: 2.18 ± .05 kg feed/kg gain | ADG ([11]; 1 ppm T3 in feed and/or ncGH 100 μg/kg/day i.m., 3 to 6 weeks, mean ±SEM of 3 pens): 53.0 ± 2.8 g/bird/day | effect on ADG, ADFC and FTG ratio ([11]; 21 days): not affected | Body composition: Ash [4, 16]: 2.20 ± .04 % BW | Body composition: Fat [4, 16]: 14.5 ± .52 % BW | Body composition: Protein [4, 16]: 18.1 ± .15 % BW | Body composition: Water [4, 16]: 64.7 ± .51 % BW | average plasma GH concentration ([5]; 4 hours post-injection of 100 μg ncGH/kg BW, Group 2): 62 ng/mL | average plasma GH concentration, fold over pre-injection ([5]; 4 hours post-injection of 100 μg ncGH/kg BW, Group 2 (P<0.05)): 3 times | I/G Molar Ratio [5, 16]: 2.28 | plasma Glucagon (G) [5, 16]: 298 pg/mL | plasma Insulin (I) [5, 16]: 1107 pg/mL | average plasma GH concentration, fold over pre-injection [12]: 4 times | ADFC (average daily feed consumption) [7, 16]: 115.8 ± 1.8 g/bird/day | ADG (average daily weight gain) [7, 16]: 57.0 ± 0.4 g/bird/day | FTG (feed-to-gain ratio) [7, 16]: 2.03 ± .02 kg feed/kg gain | BW (body weight) ([7]; Group 2: daily i.m. 100 ug ncGH/kg with CF, 1 ppm T3, 1 ppm T4 or 5 ppm TRH in feed, 3 to 6 weeks): 1.83 ± .04 kg | feed efficiency, improvement ([7]; vs FTG ratio of CF+BI group (P<0.05)): 9%
